Data as given in ChEMBL document CHEMBL1201862, “PubChem BioAssay data set” (2004).
Active and inactive are the calls of the source.

Assays:
[1] = target: Voltage-gated inwardly rectifying potassium channel KCNH2 (Homo sapiens, UniProt Q12809); test: concentration-dependent hERG rescue from blockers – cell-based, thallium flux, dose response (AID 2121); assay type: ADME
[2] = target: Major prion protein (Homo sapiens, UniProt P04156); assay type: functional, cell-based
[3] = target: T1, Tyrosine-protein phosphatase non-receptor type 7 (Homo sapiens, UniProt P35236); test: HePTP tyrosine phosphatase activity blockers – biochemical, absorbance, leukemia target, primary screen (AID 521); assay type: functional
T1 sequence (P35236 whole entry): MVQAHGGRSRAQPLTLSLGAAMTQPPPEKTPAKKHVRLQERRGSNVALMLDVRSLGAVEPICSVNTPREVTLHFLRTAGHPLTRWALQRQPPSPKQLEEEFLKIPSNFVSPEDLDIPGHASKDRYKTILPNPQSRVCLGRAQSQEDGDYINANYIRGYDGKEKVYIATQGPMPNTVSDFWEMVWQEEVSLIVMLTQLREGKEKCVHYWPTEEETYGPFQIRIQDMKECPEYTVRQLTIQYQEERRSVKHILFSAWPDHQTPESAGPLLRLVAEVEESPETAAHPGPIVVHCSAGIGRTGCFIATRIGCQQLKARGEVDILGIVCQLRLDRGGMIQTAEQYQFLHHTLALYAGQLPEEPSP

[4] = cells
[5] = target: T2, Dual specificity protein phosphatase 6 (Rattus norvegicus, UniProt Q64346); test: inhibition of rat DUSP6 enzyme activity – biochemical, in vitro, primary screen (AID 425)
T2 sequence (Q64346 whole entry): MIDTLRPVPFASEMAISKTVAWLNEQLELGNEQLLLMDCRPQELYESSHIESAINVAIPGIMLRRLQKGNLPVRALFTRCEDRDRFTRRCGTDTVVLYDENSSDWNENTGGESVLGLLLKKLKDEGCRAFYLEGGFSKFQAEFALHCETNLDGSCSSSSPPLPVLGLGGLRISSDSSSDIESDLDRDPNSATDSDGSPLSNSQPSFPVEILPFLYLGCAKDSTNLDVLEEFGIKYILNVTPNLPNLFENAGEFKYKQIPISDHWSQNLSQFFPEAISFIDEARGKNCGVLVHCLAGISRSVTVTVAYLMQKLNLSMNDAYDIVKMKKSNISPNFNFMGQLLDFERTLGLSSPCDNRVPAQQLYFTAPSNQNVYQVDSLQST

[6] = tested on: INS1; test: INS-1E survival protection against cytokine death – cell-based, luminescence, retest, dose response (AID 449756); assay type: functional; conditions: Rattus norvegicus;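 note: cell death triggered by IL-1 beta plus TNF-alpha plus IFN-gamma mixture; protective hits raise ATP signal compared with cytokine alone wells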
[7] = Trypanosoma cruzi growth suppression in host cells – NIH3T3 host cells, beta-gal luminescence, confirmation (AID 2044); assay type: functional, cell-based;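 note: intracellular parasites grown in NIH/3T3 mouse fibroblasts as host cells; luminescent beta-galactosidase reporter signal from transgenic T. cruzi replicating inside host cells; inhibitors lower the luminescence signal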
[8] = target: T3, Sphingosine 1-phosphate receptor 2 (Homo sapiens, UniProt O95136); test: Dose Response Cell Based Assay for Antagonists of the S1P2 Receptor. [Related pubchem assays: 856, 736 ]; assay type: functional
T3 sequence (O95136 whole entry): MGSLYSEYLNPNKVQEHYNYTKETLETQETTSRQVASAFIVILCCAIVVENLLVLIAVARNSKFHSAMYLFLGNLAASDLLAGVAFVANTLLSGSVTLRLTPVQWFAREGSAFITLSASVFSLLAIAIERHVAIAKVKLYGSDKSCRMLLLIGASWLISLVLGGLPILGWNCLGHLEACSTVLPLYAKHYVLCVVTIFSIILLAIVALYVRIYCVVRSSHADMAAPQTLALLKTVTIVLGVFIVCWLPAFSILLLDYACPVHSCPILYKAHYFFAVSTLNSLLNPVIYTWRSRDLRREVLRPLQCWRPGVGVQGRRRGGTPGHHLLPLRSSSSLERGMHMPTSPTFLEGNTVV

[9] = NIH3T3 cell viability loss – ATP luminescence, mouse fibroblasts, counter-screen, dose response (AID 2010); assay type: functional, cell-based;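 note: cells exposed to compound for about 90 hours before reading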
[10] = loss of viability in HepG2 cells – cell-based, CellTiter-Glo, cherry-picked, cytotoxicity control for Shn3 inhibitor project, dose response (AID 624134); assay type: functional
[11] = non-specific 3'UTR reporter inhibition in Clone20-Shn3RL – cell-based, Renilla luciferase, cherry-picked, counter-screen for Shn3 inhibitor project, dose response (AID 624133); assay type: functional
[12] = HEK-293T viability loss after treatment – luminescence, T-cell screen hits, cytotoxicity control for TCR NF-kB inhibitor project, dose response (AID 489026); assay type: functional, cell-based;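 note: cells exposed to compound about 14 hours before the viability readout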
[13] = reduction of Shn3 3'UTR-driven luciferase in osteoblasts – cell-based, Clone20 osteoblasts, firefly luciferase, cherry-picked, dose response (AID 624132); assay type: functional;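 note: firefly luciferase luminescence from reporter carrying the Shn3 3'UTR in osteoblasts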
[14] = target: T4, DNA repair protein RAD52 homolog (Homo sapiens, UniProt P43351); assay type: functional, biochemical
T4 sequence (P43351 whole entry): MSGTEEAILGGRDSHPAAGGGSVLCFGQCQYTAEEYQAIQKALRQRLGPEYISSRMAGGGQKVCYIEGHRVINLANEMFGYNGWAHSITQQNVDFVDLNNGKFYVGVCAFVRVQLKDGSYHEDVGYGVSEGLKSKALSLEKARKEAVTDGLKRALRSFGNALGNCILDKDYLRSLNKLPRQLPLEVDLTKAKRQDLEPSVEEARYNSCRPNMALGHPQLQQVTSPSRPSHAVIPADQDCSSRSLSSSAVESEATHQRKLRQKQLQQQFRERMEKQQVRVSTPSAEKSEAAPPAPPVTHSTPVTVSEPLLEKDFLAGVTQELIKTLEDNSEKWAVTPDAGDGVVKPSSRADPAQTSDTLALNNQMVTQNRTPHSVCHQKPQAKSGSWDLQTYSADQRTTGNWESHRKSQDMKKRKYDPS

[15] = target: T5, DNA repair and recombination protein RAD54-like (Homo sapiens, UniProt Q92698); test: RAD54 Holliday junction migration blockers – biochemical, fluorescence, cherry-picked samples, dose series, confirmation (AID 651657); assay type: functional
T5 sequence (Q92698 whole entry): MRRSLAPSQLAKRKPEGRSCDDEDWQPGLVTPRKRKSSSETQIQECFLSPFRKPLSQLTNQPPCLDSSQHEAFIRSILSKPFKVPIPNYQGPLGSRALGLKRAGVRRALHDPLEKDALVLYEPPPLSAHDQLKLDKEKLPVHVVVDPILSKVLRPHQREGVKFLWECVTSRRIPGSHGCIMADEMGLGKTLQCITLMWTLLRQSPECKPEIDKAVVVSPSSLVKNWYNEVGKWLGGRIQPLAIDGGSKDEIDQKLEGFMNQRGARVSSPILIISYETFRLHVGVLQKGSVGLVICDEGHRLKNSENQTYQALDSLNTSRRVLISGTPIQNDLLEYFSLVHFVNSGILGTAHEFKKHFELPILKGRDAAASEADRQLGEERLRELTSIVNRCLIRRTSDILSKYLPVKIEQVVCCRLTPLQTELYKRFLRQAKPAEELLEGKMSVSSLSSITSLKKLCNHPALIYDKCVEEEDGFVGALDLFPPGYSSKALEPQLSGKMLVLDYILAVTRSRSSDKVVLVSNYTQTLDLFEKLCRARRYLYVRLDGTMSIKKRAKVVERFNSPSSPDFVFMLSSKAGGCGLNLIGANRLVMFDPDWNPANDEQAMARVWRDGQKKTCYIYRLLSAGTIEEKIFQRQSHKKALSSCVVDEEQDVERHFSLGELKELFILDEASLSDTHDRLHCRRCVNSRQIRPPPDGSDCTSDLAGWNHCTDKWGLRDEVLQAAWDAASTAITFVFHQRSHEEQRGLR

[16] = tested on: Vero; test: inhibition of WNV-induced cytopathic effect – cell-based, CPE readout (AID 1621); assay type: functional; conditions: Chlorocebus sabaeus
[17] = target: T6, Protein RecA (Mycobacterium tuberculosis, UniProt P9WHJ3); test: Fluorescence Cell-Free Homogeneous Dose Retest to Identify Inhibitors of RecA-Intein Splicing Activity. [Related pubchem assays (depositor defined):AID2097, AID2223, AID489010, AID492950]; assay type: functional
T6 sequence (P9WHJ3 whole entry): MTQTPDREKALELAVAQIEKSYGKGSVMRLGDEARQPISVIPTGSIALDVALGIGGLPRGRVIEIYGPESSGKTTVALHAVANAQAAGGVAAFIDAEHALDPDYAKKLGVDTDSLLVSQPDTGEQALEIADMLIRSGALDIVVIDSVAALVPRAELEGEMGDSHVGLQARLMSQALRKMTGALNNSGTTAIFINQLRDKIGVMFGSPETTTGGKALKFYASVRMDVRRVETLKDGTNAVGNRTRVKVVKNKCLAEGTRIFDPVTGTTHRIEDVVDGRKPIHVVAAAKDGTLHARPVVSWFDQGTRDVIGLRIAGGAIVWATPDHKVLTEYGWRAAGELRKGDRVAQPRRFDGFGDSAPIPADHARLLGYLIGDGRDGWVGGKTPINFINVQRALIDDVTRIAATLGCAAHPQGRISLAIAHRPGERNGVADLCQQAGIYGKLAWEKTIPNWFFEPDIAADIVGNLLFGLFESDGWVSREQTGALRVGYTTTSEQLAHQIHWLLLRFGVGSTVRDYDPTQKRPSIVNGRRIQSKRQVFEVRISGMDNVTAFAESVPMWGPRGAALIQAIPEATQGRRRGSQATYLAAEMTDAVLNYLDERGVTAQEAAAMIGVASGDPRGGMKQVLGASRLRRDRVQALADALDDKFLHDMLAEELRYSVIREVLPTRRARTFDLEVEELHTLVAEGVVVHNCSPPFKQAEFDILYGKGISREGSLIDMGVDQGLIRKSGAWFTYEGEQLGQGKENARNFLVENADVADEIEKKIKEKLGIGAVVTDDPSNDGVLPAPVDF

[18] = target: T3, Sphingosine 1-phosphate receptor 2; test: Dose Response Cell Based Assay for Agonists of the S1P2 Receptor. [Related pubchem assays: 729, 736, 843 ]; assay type: functional
[19] = tested on: Vero; test: cells; assay type: functional; conditions: Chlorocebus sabaeus
[20] = target: T7, Replicative DNA helicase DnaB (Mycobacterium tuberculosis, UniProt P9WMR3); test: DnaB intein splicing inhibitors, dose response, biochemical, cell-free fluorescence (AID 449749); assay type: functional
T7 sequence (P9WMR3 whole entry): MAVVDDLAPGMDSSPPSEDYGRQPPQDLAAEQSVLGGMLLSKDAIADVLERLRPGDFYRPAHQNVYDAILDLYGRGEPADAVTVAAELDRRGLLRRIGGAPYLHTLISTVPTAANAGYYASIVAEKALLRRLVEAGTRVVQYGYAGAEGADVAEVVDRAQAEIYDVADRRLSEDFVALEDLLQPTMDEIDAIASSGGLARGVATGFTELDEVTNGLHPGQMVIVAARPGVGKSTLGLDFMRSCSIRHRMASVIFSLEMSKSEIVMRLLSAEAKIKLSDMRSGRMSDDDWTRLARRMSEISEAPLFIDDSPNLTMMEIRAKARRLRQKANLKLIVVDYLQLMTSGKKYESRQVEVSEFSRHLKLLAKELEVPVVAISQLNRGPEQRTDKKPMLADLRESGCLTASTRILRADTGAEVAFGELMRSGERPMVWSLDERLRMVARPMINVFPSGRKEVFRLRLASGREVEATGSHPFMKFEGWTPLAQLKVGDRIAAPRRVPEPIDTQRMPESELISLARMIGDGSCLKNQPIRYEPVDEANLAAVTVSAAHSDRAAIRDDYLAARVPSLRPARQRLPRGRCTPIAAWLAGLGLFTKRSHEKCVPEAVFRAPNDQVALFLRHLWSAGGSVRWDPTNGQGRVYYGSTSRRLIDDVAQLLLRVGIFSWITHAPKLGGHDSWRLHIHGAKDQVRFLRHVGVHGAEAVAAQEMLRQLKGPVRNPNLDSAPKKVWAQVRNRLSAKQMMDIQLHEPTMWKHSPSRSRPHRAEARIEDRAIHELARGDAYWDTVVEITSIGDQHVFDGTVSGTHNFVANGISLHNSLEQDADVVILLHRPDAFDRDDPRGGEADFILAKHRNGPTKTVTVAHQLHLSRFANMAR

[21] = target: T2, Dual specificity protein phosphatase 6; assay type: functional
[22] = target: T2, Dual specificity protein phosphatase 6
[23] = target: Glyceraldehyde-3-phosphate dehydrogenase (Homo sapiens, UniProt P04406)
Glyceraldehyde-3-phosphate dehydrogenase, sequence (P04406 whole entry): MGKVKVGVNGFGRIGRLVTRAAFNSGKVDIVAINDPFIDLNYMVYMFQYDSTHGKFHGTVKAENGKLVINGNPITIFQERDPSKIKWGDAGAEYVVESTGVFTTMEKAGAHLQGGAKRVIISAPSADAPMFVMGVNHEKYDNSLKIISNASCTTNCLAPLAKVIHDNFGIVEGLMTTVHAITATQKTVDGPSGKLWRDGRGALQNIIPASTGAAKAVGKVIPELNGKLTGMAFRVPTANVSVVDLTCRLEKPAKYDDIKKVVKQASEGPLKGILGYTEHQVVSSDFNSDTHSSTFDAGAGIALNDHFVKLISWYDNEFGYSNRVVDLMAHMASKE

[24] = target: Cytochrome P450 2C19 (Homo sapiens, UniProt P33261); test: Cytochrome panel assay with activity outcomes. Panel member name: p450-cyp2c19 Compounds with AC50 equal or less than 10 uM are considered active; assay type: functional; conditions: read-out: AC50
Cytochrome P450 2C19, sequence (P33261 whole entry): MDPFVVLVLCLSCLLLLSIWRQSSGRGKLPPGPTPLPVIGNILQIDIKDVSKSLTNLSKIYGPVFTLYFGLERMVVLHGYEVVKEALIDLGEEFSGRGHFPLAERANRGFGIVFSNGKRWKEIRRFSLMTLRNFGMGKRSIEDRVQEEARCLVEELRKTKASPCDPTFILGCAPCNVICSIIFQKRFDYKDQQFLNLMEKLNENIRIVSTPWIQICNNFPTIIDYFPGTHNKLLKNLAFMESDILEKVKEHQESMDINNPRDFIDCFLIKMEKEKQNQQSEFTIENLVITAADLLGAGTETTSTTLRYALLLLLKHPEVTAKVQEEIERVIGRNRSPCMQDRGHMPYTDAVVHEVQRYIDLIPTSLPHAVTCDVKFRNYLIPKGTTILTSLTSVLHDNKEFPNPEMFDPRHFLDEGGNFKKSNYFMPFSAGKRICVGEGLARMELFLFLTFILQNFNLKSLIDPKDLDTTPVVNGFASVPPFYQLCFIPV

[25] = target: T1, Tyrosine-protein phosphatase non-receptor type 7; assay type: functional
[26] = target: T8, Bcl-2-like protein 10 (Homo sapiens, UniProt Q9HD36); test: Bcl-B/TR3 peptide binding disruption – biochemical, fluorescence polarization, FITC-TR3 peptide, selectivity assay for Bfl-1 inhibitor project, primary screen (AID 748);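 note: fluorescence polarization from a fluorescein-labelled TR3 peptide binding purified Bcl-B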
T8 sequence (Q9HD36 whole entry): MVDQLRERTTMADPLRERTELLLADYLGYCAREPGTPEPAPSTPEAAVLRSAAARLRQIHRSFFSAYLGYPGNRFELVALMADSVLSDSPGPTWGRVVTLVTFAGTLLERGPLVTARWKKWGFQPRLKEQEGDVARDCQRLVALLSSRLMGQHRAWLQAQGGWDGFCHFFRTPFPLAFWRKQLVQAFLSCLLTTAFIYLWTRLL

Voltage-gated inwardly rectifying potassium channel KCNH2, sequence (Q12809 whole entry): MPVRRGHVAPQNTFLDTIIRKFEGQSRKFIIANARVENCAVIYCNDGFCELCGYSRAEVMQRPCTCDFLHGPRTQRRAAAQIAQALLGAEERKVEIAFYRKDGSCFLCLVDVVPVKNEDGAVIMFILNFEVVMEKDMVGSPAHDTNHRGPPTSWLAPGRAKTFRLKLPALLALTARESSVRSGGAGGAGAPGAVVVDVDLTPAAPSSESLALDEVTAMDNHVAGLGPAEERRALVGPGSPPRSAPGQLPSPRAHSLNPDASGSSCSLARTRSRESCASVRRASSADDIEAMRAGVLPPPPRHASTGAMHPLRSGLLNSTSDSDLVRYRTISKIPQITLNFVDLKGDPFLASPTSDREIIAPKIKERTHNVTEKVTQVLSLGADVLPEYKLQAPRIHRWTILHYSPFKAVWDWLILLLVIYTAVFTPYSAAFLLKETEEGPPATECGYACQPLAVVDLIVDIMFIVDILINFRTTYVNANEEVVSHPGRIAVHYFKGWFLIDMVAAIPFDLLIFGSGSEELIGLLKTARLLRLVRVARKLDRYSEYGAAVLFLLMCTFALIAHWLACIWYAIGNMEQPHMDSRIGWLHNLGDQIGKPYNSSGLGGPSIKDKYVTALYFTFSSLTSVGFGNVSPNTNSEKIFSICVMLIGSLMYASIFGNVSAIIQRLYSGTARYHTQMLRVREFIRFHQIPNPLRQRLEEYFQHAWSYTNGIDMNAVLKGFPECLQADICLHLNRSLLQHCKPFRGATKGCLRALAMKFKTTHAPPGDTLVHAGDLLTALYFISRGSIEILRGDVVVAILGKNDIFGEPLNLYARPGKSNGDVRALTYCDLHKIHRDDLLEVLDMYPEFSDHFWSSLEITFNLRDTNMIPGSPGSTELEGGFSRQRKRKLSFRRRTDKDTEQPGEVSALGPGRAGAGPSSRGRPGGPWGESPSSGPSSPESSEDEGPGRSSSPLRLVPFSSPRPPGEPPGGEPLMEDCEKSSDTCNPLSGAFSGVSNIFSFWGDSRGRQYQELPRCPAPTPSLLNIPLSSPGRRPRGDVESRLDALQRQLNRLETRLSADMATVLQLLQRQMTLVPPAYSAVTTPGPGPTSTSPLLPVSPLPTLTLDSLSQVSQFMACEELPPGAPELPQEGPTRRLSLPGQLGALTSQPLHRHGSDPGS

With `COc1ccc(-c2csc(NC(=S)NC(=O)c3cccs3)n2)cc1Br` the EC50 [1] was 1.41 µM (active).
For `NC(=O)CSc1nnc2n(-c3ccccc3)c(=O)c3c4c(sc3n12)CCCCC4`, the IC50 [2] was 4.66 µM (active), the IC50 [3] was 2.54 µM (active) and the IC50 [4] was 130 µM (inactive). For the same compound, the IC50 [5] was > 10 µM (not active).
In the case of `Nc1nc(Cl)cc(N2CCC(c3cc(-c4ccc(Cl)cc4)[nH]n3)CC2)n1`, the AC50 [6] is reported as 4.41 µM (active), the EC50 [7] is reported as 2.13 µM (active) and the IC50 [8] is reported as 7.01 µM (active). For the same compound, the EC50 [9] was 7.5 µM (active), the AC50 [10] was 19.5 µM (active) and the AC50 [11] was 11.1 µM (active). The IC50 [12] was 64.3 µM (inactive) and the AC50 [13] was 2.43 µM (active).
In the case of `CCCN(CCC)CCCN=C(S)Nc1ccc2nc(N3CCCC3)cc(C)c2c1`, the AC50 [14] is reported as 9.06 µM (active), the EC50 [7] is reported as 1.96 µM (active) and the AC50 [15] is reported as 19.4 µM (active). The EC50 [9] was 10.1 µM (active) and the IC50 [16] was 25.4 µM (active).
In the case of `Nc1c(C(=O)NCCCc2ccccc2)c2nc3ccccc3nc2n1Cc1cccs1`, the EC50 [17] is reported as 3.3 µM (active), the EC50 [7] is reported as 2.17 µM (active) and the EC50 [18] is reported as 2.2 µM (active). For the same compound, the CC50 [19] was > 25 µM (active), the EC50 [9] was > 60 µM (not active) and the AC50 [20] was 29.3 µM (active).
For `COC(=O)c1sc2cc(C(F)(F)F)cnc2c1-c1ccccc1`, the IC50 [8] was > 30 µM (not active).
For `Cc1ccc(C)n1C(Cc1ccccc1)C(=O)O` (configuration not stated), the IC50 [21] was > 100 µM (inactive), the IC50 [22] was > 100 µM (inactive) and the IC50 [23] was > 100 µM (not active). For the same compound, the IC50 [5] was > 10 µM (not active), the AC50 [24] was 22.4 µM (inconclusive) and the IC50 [25] was 28 µM (active). For the same compound, the IC50 [26] was < 0.195 µM (inactive).
